Assay results taken from PMC9607644, “Glycoconjugation of Quinoline Derivatives Using the C-6 Position in Sugars as a Strategy for Improving the Selectivity and Cytotoxicity of Functionalized Compounds” (Molecules, 2022).

How the values were obtained:
HCT-116 cells = assay: Annexin V-FITC/PI apoptosis flow cytometry, HCT-116; format: cell-based, human; settings: IC50 dose, 24 h
Excerpt: (§1) Apoptosis is a natural biological process involving programmed cell death and plays an important role in maintaining correct homeostasis between cell proliferation and cell death. This is in contrast to necrosis, which is accompanied by acute inflammation, preceded by cell degradation due to the loss of the integrity of the cell membrane. It is possible to distinguish viable cells from apoptotic and necrotic cell fractions using Annexin V-FITC and Propidium Iodide (PI). Annexin V-FITC labels phosphatidylserine residues that, after the start of apoptosis, are located on the outer surface of the cell membrane, enabling the identification of cells in the early stages of apoptosis. PI binds stoichiometrically to intracellular DNA during late apoptosis and necrosis when the cell membrane has been damaged. This combination allows for the differentiation of early apoptotic (A+/P−), late apoptotic (A+/P+), necrosis (A−/P+), and normal (A−/P−) cells that can be quantified by flow cytometry.
The cell cycle and the type of cell death induced by the test compounds were measured by using flow cytometry according to the manufacturer’s protocol. […] Control cells were grown with fresh medium supplemented with 0.5% DMSO. After 24 h of incubation, the cells were collected by trypsinization. Then, samples were centrifuged (3 min, 2000 rpm, RT) and washed with PBS, after which the cells were centrifuged again (3 min, 2000 rpm, RT) and the supernatant was carefully removed. The resulting precipitate contained cells, which were used for flow cytometry experiments.
The fraction of dead cells after treatment with the test compounds were detected using the FITC Annexin-V Apoptosis Detection Kit with PI (BioLegend, San Diego, CA, USA). […] 250 μL of the Annexin-V Binding Buffer was then added and the samples were incubated in the dark on ice for 15 min.

NHDF-Neo cells = assay: Annexin V-FITC/PI apoptosis flow cytometry, NHDF-Neo; format: cell-based; settings: IC50 dose, 24 h
Excerpt: as §1, with “This is important information from the point of view of drug design, as it provides detailed information on the cytotoxicity of a compound. Apoptosis” for “Apoptosis”, “cytometry. The experiments were performed on the HCT-116 and MCF-7 cancer cell lines and the NHDF-Neo healthy cell line. […] The results of the level of apoptosis induction by the tested compounds are presented in Figure 7 and in the Supplementary Materials (Figure S73).” for “cytometry.”
The cell cycle and the type of cell death induced by the test compounds were measured by using flow cytometry according to the manufacturer’s protocol. The cells were seeded into 6-well plates at a density of 3 × 10^5 (HCT-116) or 4 × 10^5 (MCF-7, NHDF-Neo) per well (3 mL) and allowed to attach for 24 h under standard conditions with 5% CO2 at 37 °C. The following day, the medium was removed and cells were treated with solutions of test compounds in fresh medium at a dose equal to their IC50 values. Control cells were grown with fresh medium supplemented with 0.5% DMSO. After 24 h of incubation, the cells were collected by trypsinization. Then, samples were centrifuged (3 min, 2000 rpm, RT) and washed with PBS, after which the cells were centrifuged again (3 min, 2000 rpm, RT) and the supernatant was carefully removed. The resulting precipitate contained cells, which were used for flow cytometry experiments.
The fraction of dead cells after treatment with the test compounds were detected using the FITC Annexin-V Apoptosis Detection Kit with PI (BioLegend, San Diego, CA, USA). First, cells were suspended in 50 μL of cold Annexin-V Binding Buffer (BioLegend, San Diego, CA, USA) and incubated in the dark with 2.5 μL of antibody Annexin-V FITC and 10 μL of propidium iodide (PI) at 37 °C for 20 min. 250 μL of the Annexin-V Binding Buffer was then added and the samples were incubated in the dark on ice for 15 min. Cytometric analyses were performed using an Aria III flow cytometer (Becton Dickinson, Franklin Lakes, NJ, USA) with the FITC configuration (488 nm excitation; emission: LP mirror 503, BP filter 530/30) or PE configuration (547 nm excitation; emission: 585 nm) and at least 10,000 cells were counted.

MCF-7 cells = assay: MTT cytotoxicity assay, MCF-7; format: cell-based, human; settings: for IC50: Homo sapiens, MCF7, incubation time 72 h; for Selectivity Index (SI) MCF-7: IC50 NHDF-Neo / IC50 MCF-7, 72 h incubation; for inhibition of cell growth at the highest doses, MCF-7: 72 h
Protocol: An in vitro biological test package was performed for the obtained derivatives. […] The MTT test is a colorimetric method for detecting proliferating cells. It is based on the ability of the enzyme mitochondrial dehydrogenase to convert yellow tetrazole salt (MTT) into purple formazan. The amount of the product formed in the reaction, determined spectrophotometrically, is proportional to the number of living cells.
The in vitro cytotoxicity of the test compounds was determined by the MTT (3-[4,5–dimethylthiazol-2-yl]-2,5-diphenyltetrazolium bromide) test (Sigma-Aldrich, Taufkirchen, Germany) according to the manufacturer’s protocol. At the beginning, for each cell line were determined the optimal seeding densities to ensure exponential growth throughout the experimental period. The confluent layer of cells were trypsinized, collected, and suspended in a growth medium. […] Then, the culture medium was replaced with solutions of different concentrations of test compounds in a fresh medium. Stock solutions of test compounds were prepared in DMSO and diluted to final concentrations with appropriate volumes of the growth medium directly before the experiment. Cells suspended in a medium supplemented with 0.5% DMSO (the amount of DMSO necessary to dissolve the highest dose of the respective sample) were used as a control of the experiment. […] The compound-treated cells were incubated for a further 24–72 h. […] After this time, the MTT dye was carefully removed, and the acquired formazan crystals were dissolved by DMSO (Chempur, Piekary Śląskie, Poland). The proliferation was evaluated by measuring the formazan product’s absorbance at a wavelength of 570 nm with a microplate spectrophotometer (Epoch, BioTek, Winooski, VT, USA). All experiments were conducted in triplicate with four technical repeats for each tested concentration. Results were expressed as the percentage change in the viability of the test cells relative to the untreated control cells and calculated as the inhibitory concentration (IC50). […] The results are expressed as the average value ± standard deviation (SD).

| SMILES | apoptotic cells, HCT-116 (HCT-116 cells) | normal cells remained, NHDF-Neo (NHDF-Neo cells) | IC50 (MCF-7 cells; MTT) | Selectivity Index (SI) MCF-7 (MCF-7 cells) | inhibition of cell growth at the highest doses, MCF-7 (MCF-7 cells; MTT) | dead cell fraction, NHDF-Neo (NHDF-Neo cells) | apoptosis induction in words, HCT-116 (HCT-116 cells) | cells in late apoptosis, NHDF-Neo (NHDF-Neo cells) | necrotic cells, NHDF-Neo (NHDF-Neo cells) | growth inhibitory activity in words, MCF-7 (MCF-7 cells; MTT) |
| --- | --- | --- | --- | --- | --- | --- | --- | --- | --- | --- |
| CC(=O)OC1O[C@H](Cn2cc(COc3cccc4cccnc34)nn2)[C@@H](OC(C)=O)[C@H](OC(C)=O)[C@H]1OC(C)=O (stereo partly shown) [Compound A-1] | 29% | 98% | 52.8 ± 0.75 µM | 2.46 | 100% |  |  |  |  |  |
| OC1O[C@H](Cn2cc(COc3cccc4cccnc34)nn2)[C@@H](O)[C@H](O)[C@H]1O (stereo partly shown) [Compound A-2] | 46% | 95% | 54.9 ± 8.71 µM | 5.78 | 100% |  |  |  |  |  |
| O[C@@H]1[C@@H](O)[C@@H](O[C@H]2O[C@H](Cn3cc(COc4cccc5cccnc45)nn3)[C@@H](O)[C@H](O)[C@H]2O)O[C@H](Cn2cc(COc3cccc4cccnc34)nn2)[C@H]1O [Compound D-2] | 87% |  | 34 ± 0.95 µM | 2.08 |  | 51% |  |  |  |  |
| CC(=O)OC[C@H]1O[C@@H](n2cc(COc3cccc4cccnc34)nn2)[C@H](OC(C)=O)[C@@H](OC(C)=O)[C@@H]1OC(C)=O [Compound E-1, reference compound] |  |  | 57.7 ± 3.32 µM | 0.96 | 100% |  | did not induce apoptosis | 61% | 14% |  |
| OC[C@H]1O[C@@H](n2cc(COc3cccc4cccnc34)nn2)[C@H](O)[C@@H](O)[C@@H]1O [Compound E-2, reference compound] |  |  | 185 ± 2.21 µM | 1.26 |  |  |  | 57% | 9% | practically did not affect the cell viability |
